Measurements published in ChEMBL document CHEMBL1201862, “PubChem BioAssay data set” (2004).
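Test compounds were applied to cells in 96-well plates for 48 hours at 5 doses. GI50 marks 50% less growth.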 The source made the active and inactive calls. No stated cut-off is given here; in the data, active = GI50 up to about 1.1 µM and inactive = higher.

Experiments:
Assay in all cases: NCI anticancer screen, dose series, 48 h
[1] = system: HOP-92
[2] = system: UO-31
[3] = system: LOX IMVI
[4] = system: DMS-114
[5] = system: NCI-H460
[6] = system: CCRF-CEM
[7] = system: SK-MEL-5
[8] = system: HCT-15
[9] = system: SK-OV-3
[10] = system: HCC 2998
[11] = system: KM-20L2
[12] = system: XF498
[13] = system: RPMI-8226
[14] = system: SW-620
[15] = system: SF-295
[16] = system: HCT-116
[17] = system: OVCAR-8
[18] = system: KM12
[19] = system: 786-0
[20] = system: HT-29
[21] = system: TK-10
[22] = system: DLD-1
[23] = system: COLO 205
[24] = system: SF-539
[25] = system: UACC-257
[26] = system: M14
[27] = system: SNB-78
[28] = system: HOP-62
[29] = system: IGROV-1
[30] = system: OVCAR-5
[31] = system: U-251
[32] = system: DMS-273
[33] = system: NCI-H522
[34] = system: A549
[35] = system: M19-MEL
[36] = system: OVCAR-4
[37] = system: K562
[38] = system: MOLT-4
[39] = system: SNB-75
[40] = system: SK-MEL-28
[41] = system: LXFL 529
[42] = system: OVCAR-3
[43] = system: UACC-62
[44] = system: A498
[45] = system: EKVX
[46] = system: SNB-19
[47] = system: SK-MEL-2
[48] = system: HL-60
[49] = system: RXF 631
[50] = system: ACHN
[51] = system: NCI-H23
[52] = system: SF-268
[53] = system: SN12C
[54] = system: CAKI-1
[55] = system: Malme-3M
[56] = system: RXF 393
[57] = system: NCI-H226
[58] = system: SR

Question: Which results are given for CC(C)N(C(=O)C12C3C4C5C3C1(C(=O)O)C5C42)C(C)C (centres undefined)?
Answer: GI50 [1]: > 100 µM (inactive); GI50 [2]: > 100 µM (inactive); GI50 [3]: > 100 µM (inactive); GI50 [4]: > 100 µM (inactive); GI50 [5]: > 100 µM (inactive); GI50 [6]: > 100 µM (inactive); GI50 [7]: > 100 µM (inactive); GI50 [8]: > 100 µM; GI50 [9]: > 100 µM (inactive); GI50 [10]: > 100 µM (inactive); GI50 [11]: > 100 µM (inactive); GI50 [12]: > 100 µM (inactive); GI50 [13]: > 100 µM (inactive); GI50 [14]: > 100 µM (inactive); GI50 [15]: > 100 µM (inactive); GI50 [16]: > 100 µM (inactive); GI50 [17]: > 100 µM (inactive); GI50 [18]: > 100 µM (inactive); GI50 [19]: > 100 µM (inactive); GI50 [20]: > 100 µM (inactive); GI50 [21]: > 100 µM (inactive); GI50 [22]: > 100 µM (inactive); GI50 [23]: > 100 µM (inactive); GI50 [24]: > 100 µM (inactive); GI50 [25]: > 100 µM (inactive); GI50 [26]: > 100 µM (inactive); GI50 [27]: > 100 µM (inactive); GI50 [28]: > 100 µM (inactive); GI50 [29]: > 100 µM (inactive); GI50 [30]: > 100 µM (inactive); GI50 [31]: > 100 µM (inactive); GI50 [32]: > 100 µM (inactive); GI50 [33]: > 100 µM (inactive); GI50 [34]: > 100 µM (inactive); GI50 [35]: > 100 µM (inactive); GI50 [36]: > 100 µM (inactive); GI50 [37]: > 100 µM (inactive); GI50 [38]: > 100 µM (inactive); GI50 [39]: 61.2 µM (inactive); GI50 [40]: > 100 µM (inactive); GI50 [41]: > 100 µM (inactive); GI50 [42]: > 100 µM (inactive); GI50 [43]: > 100 µM (inactive); GI50 [44]: > 100 µM (inactive); GI50 [45]: > 100 µM (inactive); GI50 [46]: > 100 µM (inactive); GI50 [47]: > 100 µM (inactive); GI50 [48]: > 100 µM (inactive); GI50 [49]: > 100 µM (inactive); GI50 [50]: > 100 µM (inactive); GI50 [51]: > 100 µM (inactive); GI50 [52]: > 100 µM (inactive); GI50 [53]: > 100 µM (inactive); GI50 [54]: > 100 µM (inactive); GI50 [55]: > 100 µM (inactive)

Question: Which results are given for CC(=O)O[C@H]1C=CC(=O)C(C)CC1C (some centres undefined)?
Answer: GI50 [56]: 42.6 µM (inactive); GI50 [1]: > 100 µM (inactive); GI50 [2]: > 100 µM (inactive); GI50 [3]: 45.8 µM (inactive); GI50 [4]: > 100 µM (inactive); GI50 [5]: > 100 µM (inactive); GI50 [6]: 60.1 µM (inactive); GI50 [7]: > 100 µM (inactive); GI50 [9]: > 100 µM (inactive); GI50 [10]: > 100 µM (inactive); GI50 [11]: > 100 µM (inactive); GI50 [12]: > 100 µM (inactive); GI50 [14]: 73.5 µM (inactive); GI50 [15]: > 100 µM (inactive); GI50 [16]: 44.8 µM (inactive); GI50 [18]: > 100 µM (inactive); GI50 [20]: > 100 µM (inactive); GI50 [21]: > 100 µM (inactive); GI50 [22]: 64 µM (inactive); GI50 [23]: 55.8 µM (inactive); GI50 [24]: > 100 µM (inactive); GI50 [25]: > 100 µM (inactive); GI50 [26]: > 100 µM (inactive); GI50 [27]: > 100 µM (inactive); GI50 [28]: > 100 µM (inactive); GI50 [29]: > 100 µM (inactive); GI50 [57]: > 100 µM (inactive); GI50 [30]: > 100 µM (inactive); GI50 [31]: > 100 µM (inactive); GI50 [32]: > 100 µM (inactive); GI50 [33]: 37.9 µM (inactive); GI50 [58]: > 100 µM (inactive); GI50 [34]: > 100 µM (inactive); GI50 [35]: > 100 µM (inactive); GI50 [36]: > 100 µM (inactive); GI50 [37]: > 100 µM (inactive); GI50 [38]: > 100 µM (inactive); GI50 [39]: > 100 µM (inactive); GI50 [40]: > 100 µM (inactive); GI50 [41]: > 100 µM (inactive); GI50 [42]: > 100 µM (inactive); GI50 [43]: > 100 µM (inactive); GI50 [44]: > 100 µM (inactive); GI50 [45]: > 100 µM (inactive); GI50 [46]: > 100 µM (inactive); GI50 [47]: > 100 µM (inactive); GI50 [48]: 64.9 µM (inactive); GI50 [49]: > 100 µM (inactive); GI50 [50]: > 100 µM (inactive); GI50 [51]: 75.9 µM (inactive); GI50 [52]: > 100 µM (inactive); GI50 [53]: > 100 µM (inactive); GI50 [54]: > 100 µM (inactive); GI50 [55]: > 100 µM (inactive)
